Results reported in patent US10294202B2, “Pyrrolidinones as herbicides” (FMC Corporation, priority 2013, dated 2019).

What was measured:
[1] = tested on: barnyardgrass; assay: Test A pre-/postemergence herbicide test; format: in vivo, Echinochloa crus-galli; conditions: for Barnyardgrass plant response rating: Preemergence, visual rating on 0 to 100 scale (0 no effect, 100 complete control)
How it was run: (§1)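 Visual injury ratings, 0 = no effect, 100 = complete control, taken ~10 days after treatment against untreated greenhouse controls. Preemergence: directed soil spray onto seeded loam/sand pots. Postemergence: spray onto plants at one- to two-leaf stage, 2–10 cm tall.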

[2] = tested on: pigweed; assay: Test A pre-/postemergence herbicide test; format: in vivo, Amaranthus retroflexus; conditions: for Pigweed plant response rating: Preemergence, visual rating on 0 to 100 scale (0 no effect, 100 complete control)
How it was run: as §1

[3] = tested on: corn; assay: Test A pre-/postemergence herbicide test; format: in vivo, Zea mays; conditions: for Corn plant response rating: Preemergence, visual rating on 0 to 100 scale (0 no effect, 100 complete control)
How it was run: as §1

[4] = tested on: sedge, umbrella; assay: Test B flooded paddy test; format: in vivo, Cyperus difformis; conditions: 250 g ai/ha, Flood; scale of 0 to 100 where 0 is no effect and 100 is complete control
How it was run: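 Paddy-water application at a 3 cm flood, young plants having two leaves. Water level maintained; greenhouse, 13–15 days; visual 0–100 control rating.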

[5] = tested on: ryegrass, Italian; assay: Test C pre-/postemergence herbicide test; format: in vivo, Lolium multiflorum; conditions: for Ryegrass, Italian plant response rating: scale 0 to 100, 0 is no effect and 100 is complete control
How it was run: (§2)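 Pre- and postemergence greenhouse screen. Preemergence treatment went onto freshly planted seeds in loam–sand soil; postemergence treatment went onto plants 2 to 18 cm tall at the 1- to 4-leaf stage in sphagnum peat/vermiculite medium. Scoring at 13 to 15 days used a 0–100 control scale.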

[6] = tested on: galium; assay: Test C pre-/postemergence herbicide test; format: in vivo, Galium aparine; conditions: for Galium plant response rating: scale 0 to 100, 0 is no effect and 100 is complete control
How it was run: as §2

[7] = tested on: corn; assay: Test C pre-/postemergence herbicide test; format: in vivo, Zea mays; conditions: for Corn plant response rating: scale 0 to 100, 0 is no effect and 100 is complete control
How it was run: as §2

[8] = tested on: foxtail, giant; assay: Test C pre-/postemergence herbicide test; format: in vivo, Setaria faberii; conditions: for Foxtail, Giant plant response rating: scale 0 to 100, 0 is no effect and 100 is complete control
How it was run: as §2

[9] = tested on: ragweed; assay: Test C pre-/postemergence herbicide test; format: in vivo, Ambrosia elatior
How it was run: as §2

[10] = tested on: soybean; assay: Test C pre-/postemergence herbicide test; format: in vivo, Glycine max; conditions: for Soybean plant response rating: scale 0 to 100, 0 is no effect and 100 is complete control
How it was run: as §2

[11] = tested on: oat, wild; assay: Test C pre-/postemergence herbicide test; format: in vivo, Avena fatua
How it was run: as §2

[12] = Postemergence, 125 g ai/ha, 0 to 100 scale, 0 no effect, 100 complete control
[13] = Postemergence, 500 g ai/ha, 0 to 100 scale (0 no effect, 100 complete control)
[14] = preemergence, 500 g ai/ha, 0 to 100 scale (0 no effect, 100 complete control)
[15] = preemergence, 500 g ai/ha, 0 to 100 scale
[16] = Postemergence, 31 g ai/ha, scale 0 (no effect) to 100 (complete control)
[17] = Postemergence, 62 g ai/ha, scale 0 to 100 (0 no effect, 100 complete control)
[18] = Postemergence, 125 g ai/ha, scale 0 to 100 (0 no effect, 100 complete control)
[19] = Postemergence, 250 g ai/ha, scale 0 to 100 (0 no effect, 100 complete control)
[20] = Preemergence, 62 g ai/ha, scale 0 to 100
[21] = Preemergence, 125 g ai/ha, scale 0 to 100 (0 no effect, 100 complete control)
[22] = Preemergence, 31 g ai/ha, scale 0 to 100, 0 is no effect and 100 is complete control

## O=C1NCC(c2ccc(F)c(C(F)(F)F)c2)C1C(=O)Nc1ccccc1F (racemic) [Compound 76]
[1]; [12]
  Plant response rating, Barnyardgrass: 80
[1]; [13]
  Plant response rating, Barnyardgrass: 90
[1]; 125 g ai/ha
  Barnyardgrass plant response rating: 80
[1]; [14]
  Plant response rating, Barnyardgrass: 80
[2]; [12]
  Plant response rating, Pigweed: 50
[2]; [13]
  Plant response rating, Pigweed: 60
[2]; 125 g ai/ha
  Pigweed plant response rating: 0
[2]; [15]
  Plant response rating, Pigweed: 50
[3]; [12]
  Plant response rating, Corn: 40
[3]; [13]
  Plant response rating, Corn: 70
[3]; 125 g ai/ha
  Corn plant response rating: 0
[3]; [15]
  Plant response rating, Corn: 40
[4]
  Plant response rating, Sedge, Umbrella: 0
[5]; [16]
  Plant response rating, Ryegrass, Italian: 0
[5]; [17]
  Plant response rating, Ryegrass, Italian: 0
[5]; [18]
  Plant response rating, Ryegrass, Italian: 0
[5]; [19]
  Plant response rating, Ryegrass, Italian: 5
[5]; Preemergence, 31 g ai/ha
  Ryegrass, Italian plant response rating: 0
[5]; [20]
  Plant response rating, Ryegrass, Italian: 25
[5]; [21]
  Plant response rating, Ryegrass, Italian: 40
[5]; Preemergence, 250 g ai/ha
  Plant response rating (scale of 0 to 100), Ryegrass, Italian: 40
[6]; [16]
  Plant response rating, Galium: 30
[6]; [17]
  Plant response rating, Galium: 50
[6]; [18]
  Plant response rating, Galium: 50
[6]; [19]
  Plant response rating, Galium: 65
[6]; Preemergence, 31 g ai/ha
  Galium plant response rating: 5
[6]; Preemergence, 250 g ai/ha
  Plant response rating (scale of 0 to 100), Galium: 85
[7]; [16]
  Plant response rating, Corn: 0
[7]; [17]
  Plant response rating, Corn: 0
[7]; [18]
  Plant response rating, Corn: 0
[7]; [19]
  Plant response rating, Corn: 0
[7]; Preemergence, 31 g ai/ha
  Corn plant response rating: 0
[7]; [20]
  Plant response rating, Corn: 10
[7]; [21]
  Plant response rating, Corn: 40
[7]; Preemergence, 250 g ai/ha
  Plant response rating (scale of 0 to 100), Corn: 65
[8]; [16]
  Plant response rating, Foxtail, Giant: 0
[8]; [17]
  Plant response rating, Foxtail, Giant: 5
[8]; [18]
  Plant response rating, Foxtail, Giant: 20
[8]; [19]
  Plant response rating, Foxtail, Giant: 70
[8]; Preemergence, 31 g ai/ha
  Foxtail, Giant plant response rating: 90
[8]; [20]
  Plant response rating, Foxtail, Giant: 95
[8]; [21]
  Plant response rating, Foxtail, Giant: 95
[8]; Preemergence, 250 g ai/ha
  Plant response rating (scale of 0 to 100), Foxtail, Giant: 98
[9]; [16]
  Plant response rating, Ragweed: 25
[9]; [17]
  Plant response rating, Ragweed: 40
[9]; [18]
  Plant response rating, Ragweed: 40
[9]; [19]
  Plant response rating, Ragweed: 55
[10]; [16]
  Plant response rating, Soybean: 0
[10]; [17]
  Plant response rating, Soybean: 0
[10]; [18]
  Plant response rating, Soybean: 5
[10]; [19]
  Plant response rating, Soybean: 10
[10]; Preemergence, 31 g ai/ha
  Soybean plant response rating: 0
[10]; [20]
  Plant response rating, Soybean: 0
[10]; [21]
  Plant response rating, Soybean: 0
[10]; Preemergence, 250 g ai/ha
  Plant response rating (scale of 0 to 100), Soybean: 0
[11]; [16]
  Plant response rating, Oat, Wild: 0
[11]; [17]
  Plant response rating, Oat, Wild: 0
[11]; [18]
  Plant response rating, Oat, Wild: 0
[11]; [19]
  Plant response rating, Oat, Wild: 0

## O=C1NCC(c2ccccc2)C1C(=O)Nc1ccccc1F (racemic) [Compound 81]
[1]; [12]
  Plant response rating, Barnyardgrass: 30
[1]; [13]
  Plant response rating, Barnyardgrass: 80
[1]; 125 g ai/ha
  Barnyardgrass plant response rating: 40
[1]; [14]
  Plant response rating, Barnyardgrass: 80
[2]; [12]
  Plant response rating, Pigweed: 0
[2]; [13]
  Plant response rating, Pigweed: 0
[2]; 125 g ai/ha
  Pigweed plant response rating: 0
[2]; [15]
  Plant response rating, Pigweed: 0
[3]; [12]
  Plant response rating, Corn: 0
[3]; [13]
  Plant response rating, Corn: 0
[3]; 125 g ai/ha
  Corn plant response rating: 0
[3]; [15]
  Plant response rating, Corn: 0
[4]
  Plant response rating, Sedge, Umbrella: 0
[5]; [16]
  Plant response rating, Ryegrass, Italian: 0
[5]; [17]
  Plant response rating, Ryegrass, Italian: 0
[5]; [18]
  Plant response rating, Ryegrass, Italian: 0
[5]; [19]
  Plant response rating, Ryegrass, Italian: 0
[5]; Preemergence, 31 g ai/ha
  Ryegrass, Italian plant response rating: 0
[5]; [20]
  Plant response rating, Ryegrass, Italian: 0
[5]; [21]
  Plant response rating, Ryegrass, Italian: 0
[5]; Preemergence, 250 g ai/ha
  Plant response rating (scale of 0 to 100), Ryegrass, Italian: 0
[6]; Preemergence, 31 g ai/ha
  Galium plant response rating: 0
[6]; [20]
  Plant response rating, Galium: 0
[6]; [21]
  Plant response rating, Galium: 0
[6]; Preemergence, 250 g ai/ha
  Plant response rating (scale of 0 to 100), Galium: 0
[7]; [16]
  Plant response rating, Corn: 0
[7]; [17]
  Plant response rating, Corn: 0
[7]; [18]
  Plant response rating, Corn: 0
[7]; [19]
  Plant response rating, Corn: 0
[7]; Preemergence, 31 g ai/ha
  Corn plant response rating: 0
[7]; [20]
  Plant response rating, Corn: 0
[7]; [21]
  Plant response rating, Corn: 0
[7]; Preemergence, 250 g ai/ha
  Plant response rating (scale of 0 to 100), Corn: 0
[8]; [16]
  Plant response rating, Foxtail, Giant: 0
[8]; [17]
  Plant response rating, Foxtail, Giant: 0
[8]; [18]
  Plant response rating, Foxtail, Giant: 0
[8]; [19]
  Plant response rating, Foxtail, Giant: 7
[8]; Preemergence, 31 g ai/ha
  Foxtail, Giant plant response rating: 0
[8]; [20]
  Plant response rating, Foxtail, Giant: 17
[8]; [21]
  Plant response rating, Foxtail, Giant: 37
[8]; Preemergence, 250 g ai/ha
  Plant response rating (scale of 0 to 100), Foxtail, Giant: 73
[9]; [16]
  Plant response rating, Ragweed: 0
[9]; [17]
  Plant response rating, Ragweed: 0
[9]; [18]
  Plant response rating, Ragweed: 0
[9]; [19]
  Plant response rating, Ragweed: 0
[9]; [22]
  Ragweed plant response rating: 0
[9]; [20]
  Plant response rating, Ragweed: 0
[9]; [21]
  Plant response rating, Ragweed: 0
[9]; Preemergence, 250 g ai/ha
  Plant response rating (scale of 0 to 100), Ragweed: 0
[10]; [16]
  Plant response rating, Soybean: 0
[10]; [17]
  Plant response rating, Soybean: 3
[10]; [18]
  Plant response rating, Soybean: 3
[10]; [19]
  Plant response rating, Soybean: 8
[10]; Preemergence, 31 g ai/ha
  Soybean plant response rating: 0
[10]; [20]
  Plant response rating, Soybean: 0
[10]; [21]
  Plant response rating, Soybean: 0
[10]; Preemergence, 250 g ai/ha
  Plant response rating (scale of 0 to 100), Soybean: 0
[11]; [16]
  Plant response rating, Oat, Wild: 0
[11]; [17]
  Plant response rating, Oat, Wild: 0
[11]; [18]
  Plant response rating, Oat, Wild: 0
[11]; [19]
  Plant response rating, Oat, Wild: 0
[11]; [22]
  Oat, Wild plant response rating: 0
[11]; [20]
  Plant response rating, Oat, Wild: 0
[11]; [21]
  Plant response rating, Oat, Wild: 0
[11]; Preemergence, 250 g ai/ha
  Plant response rating (scale of 0 to 100), Oat, Wild: 0
